pIC50: −log10 of the molar value.
Each compound was assayed against T1, purified human 15-lipoxygenase (Homo sapiens, UniProt P16050) (assay: 15-lipoxygenase inhibition assay (arachidonic acid oxidation, HPLC readout)). Details: not given.
T1 sequence (P16050 1-662): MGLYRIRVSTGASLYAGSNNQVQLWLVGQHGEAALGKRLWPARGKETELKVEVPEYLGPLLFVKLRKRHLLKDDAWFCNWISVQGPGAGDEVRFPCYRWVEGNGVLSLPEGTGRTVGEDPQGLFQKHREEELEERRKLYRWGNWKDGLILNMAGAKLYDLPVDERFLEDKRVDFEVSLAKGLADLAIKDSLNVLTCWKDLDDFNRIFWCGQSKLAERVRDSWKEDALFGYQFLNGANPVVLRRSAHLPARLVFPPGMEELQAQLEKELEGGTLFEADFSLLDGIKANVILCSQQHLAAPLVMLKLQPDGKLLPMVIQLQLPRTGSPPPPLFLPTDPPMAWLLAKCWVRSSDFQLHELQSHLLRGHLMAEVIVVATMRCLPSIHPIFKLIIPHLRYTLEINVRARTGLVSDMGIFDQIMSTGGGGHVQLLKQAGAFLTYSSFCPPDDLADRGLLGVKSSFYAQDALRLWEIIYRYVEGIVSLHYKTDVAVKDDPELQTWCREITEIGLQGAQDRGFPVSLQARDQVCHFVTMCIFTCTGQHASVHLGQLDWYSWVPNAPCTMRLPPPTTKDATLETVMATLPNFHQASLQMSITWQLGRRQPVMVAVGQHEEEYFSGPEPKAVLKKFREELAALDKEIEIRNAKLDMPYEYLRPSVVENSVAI
Type: biochemical
Protocol: The assay employed takes advantage of the ability of lipoxygenases to oxidize polyunsaturated fatty acids, containing a 1,4-cis-pentadiene configuration, to their corresponding hydroperoxy or hydroxyl derivatives. In this particular assay, the lipoxygenase was a purified human 15-lipoxygenase and the fatty acid was arachidonic acid. The assay is performed at room temperature (20-22° C.) and the following are added to each well in a 96-well microtiter plate:
a) 35 μL phosphate buffered saline (PBS) (pH 7.4);
b) inhibitor (i.e. compound) or vehicle (0.5 μl DMSO);
c) 10 μL of a 10× concentrated solution of 15-lipoxygenase in PBS. The plates are incubated for 5 minutes at room temperature;
The plate is then incubated for 10 minutes at room temperature;
e) the enzymatic reaction is terminated by the addition of 100 μl methanol; and
f) the amount of 15-hydroperoxy-eicosatetraenoic acid or 15-hydroxy-eicosatetraenoic acid is measured by reverse phase HPLC.

Row | Structure (SMILES) | pIC50
1 | O=C(Nc1ccc2ccccc2n1)c1cc[nH]n1 [Example 2, Pyrazole-3-carboxylic acid quinolin-2-ylamide] | 6.48

Same assay, conditions: arachidonic acid substrate, room temperature, PBS pH 7.4; read-out: IC50

Row | Structure (SMILES) | pIC50
2 | O=C(Nc1cccc2[nH]ccc12)c1cc(Cl)[nH]n1 [Example 48, 5-Chloropyrazole-3-carboxylic acid indol-4-ylamide] | 6.68
3 | O=C(Nc1cccc2cccnc12)c1cc[nH]n1 [Example 59, Pyrazole-3-carboxylic acid quinolin-8-ylamide] | 6.33

The remaining lines, values ahead:

Row | pIC50 | Structure (SMILES)
4 | 6.17 | O=C(Nc1ccnc2ccc(Br)cc12)c1cc[nH]n1 [Example 63, Pyrazole-3-carboxylic acid (6-bromoquinolin-4-yl)amide]
5 | 6.38 | Cc1cc(C(=O)Nc2cccc3ncccc23)n[nH]1 [Example 7, 5-Methylpyrazole-3-carboxylic acid quinolin-5-ylamide]
6 | 6.41 | O=C(Nc1cccc2c1OC(F)(F)O2)c1cc[nH]n1 [Example 60, Pyrazole-3-carboxylic acid (2,3-(difluoromethylenedioxy)phenyl)amide]
7 | 7.12 | CCOC(=O)c1c(NC(=O)c2cc[nH]n2)sc2c1CCCC2 [Example 56, 2-[(Pyrazole-3-carbonyl)amino]-4,5,6,7-tetrahydrobenzo[b]thiophene-3-carboxylic acid ethyl ester]

— US20070225318A1, “Pyrazole Compounds Useful In The Treatment Of Inflammation” (BIOLIPOX AB, priority 2004, published 2007)
